Some test systems named below: HCT-15; RPMI-8226; MOLT-4; OVCAR-3; SK-OV-3; HOP-92; OVCAR-8; NCI-H23; SW-620; HCC 2998; K562; CCRF-CEM; M14; OVCAR-5; SF-539; SK-MEL-28; NCI-H226.
Holding throughout (experiment): growth of human tumour cells (NCI), 48 h

We go through 14 molecules from ChEMBL document CHEMBL1201862, “PubChem BioAssay data set” (2004).

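Growth conditions: 96-well plates. Treatment: test compound, 48 hours, 5 concentrations. Analysis: linear interpolation between bracketing concentrations; unreached endpoints set to highest concentration. Here, GI50 denotes the concentration required for 50% inhibition of growth.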 Active and inactive are the calls of the source. Rule as the data show it: active = GI50 up to about 1.1 µM and inactive = higher.

With `O=C(Cn1c2c(c3ccccc31)CCCC2)N1CCOCC1`, the GI50 was greater than 100 µM in the assay on HCT-15; > 100 µM (inactive) in the assay on RPMI-8226; > 100 µM (inactive) in the assay on MOLT-4; > 100 µM (inactive) in the assay on OVCAR-3; > 100 µM (inactive) in the assay on SK-OV-3; > 100 µM (inactive) in the assay with HOP-92. Besides, the GI50 in the assay with OVCAR-8, in the assay on NCI-H23, in the assay with SW-620, in the assay on HCC 2998, with K562 and in the assay on CCRF-CEM was > 100 µM (inactive) in each case. Further, the GI50 in the assay on M14 was > 100 µM (inactive); in the assay with OVCAR-5, 87.3 µM (inactive); in the assay on SF-539, > 100 µM (inactive).

`CCCCN(CCCC)C(=Nc1ccccc1)N(CCCC)CCCC`: the GI50 with RPMI-8226 was 1.8 µM (inactive); in the assay on MOLT-4, 2.72 µM (inactive); in the assay with OVCAR-3 it was 3.3 µM (inactive); in the assay with SK-OV-3 it was 8.43 µM (inactive); in the assay with HOP-92 it was 1.62 µM (inactive); in the assay on OVCAR-8, 9.25 µM (inactive). Further, the GI50 is 2.19 µM (inactive) with NCI-H23; 3.54 µM (inactive) in the assay with SW-620; 4.32 µM (inactive) with HCC 2998; 3.1 µM (inactive) with SK-MEL-28; 2.09 µM (inactive) with K562; 3.89 µM (inactive) in the assay on CCRF-CEM. Further, the values for the GI50 with OVCAR-5 and in the assay with SF-539 were 5.78 µM (inactive) and 11.4 µM (inactive), respectively.

As for `CC(C)OCN/C(N)=N\C#N`, the GI50 was 17.5 µM with HCT-15; 24 µM (inactive) in the assay with RPMI-8226; > 100 µM (inactive) in the assay on MOLT-4; > 100 µM (inactive) in the assay with OVCAR-3; > 100 µM (inactive) in the assay with SK-OV-3; > 100 µM (inactive) in the assay with HOP-92. For the same molecule, the GI50 in the assay on OVCAR-8 was > 100 µM (inactive); in the assay with NCI-H23, > 100 µM (inactive); with SW-620 it was 17 µM (inactive); in the assay with HCC 2998, > 100 µM (inactive); with SK-MEL-28, > 100 µM (inactive); in the assay with NCI-H226, > 100 µM (inactive). Besides, the GI50 with K562, in the assay on M14, in the assay with OVCAR-5 and in the assay with SF-539 was > 100 µM (inactive) each time.

With `Nc1n/c(=N\c2ccccc2)ss1`, the GI50 with RPMI-8226, in the assay with MOLT-4, in the assay on OVCAR-3, in the assay with SK-OV-3, in the assay with HOP-92 and with OVCAR-8 was > 100 µM (inactive) throughout. The GI50 was > 100 µM (inactive) in the assay on NCI-H23; > 100 µM (inactive) with SW-620; > 100 µM (inactive) in the assay with HCC 2998; > 100 µM (inactive) with SK-MEL-28; > 100 µM (inactive) with NCI-H226; 78 µM (inactive) with K562. The GI50 in the assay with M14, with OVCAR-5 and with SF-539 was > 100 µM (inactive) throughout.

`O=C(c1ccccc1)C1S(=O)(=O)OCCOS1(=O)=O`: the GI50 in the assay with RPMI-8226 was > 100 µM (inactive); in the assay with MOLT-4, > 10 µM (inactive); with OVCAR-3, > 100 µM (inactive); in the assay on SK-OV-3, > 100 µM (inactive); in the assay on HOP-92, > 100 µM (inactive); with OVCAR-8, > 100 µM (inactive). Besides, the GI50 with NCI-H23, in the assay on SW-620, with HCC 2998, with SK-MEL-28, with K562 and in the assay with CCRF-CEM was > 100 µM (inactive) in each case. Moreover, the GI50 in the assay with M14 and with SF-539 was > 100 µM (inactive) throughout.

As to `Cc1ccc(NC(=O)OCC(COc2ccc(Cl)cc2Cl)OC(=O)Nc2ccc(C)cc2)cc1` (stereo not drawn), the GI50 was greater than 100 µM in the assay with HCT-15; > 100 µM (inactive) in the assay with RPMI-8226; 80.2 µM (inactive) in the assay on OVCAR-3; > 100 µM (inactive) with SK-OV-3; 53.7 µM (inactive) with HOP-92; 12.5 µM (inactive) in the assay on OVCAR-8. Further, the GI50 is > 100 µM (inactive) in the assay on NCI-H23; > 100 µM (inactive) in the assay on SW-620; > 100 µM (inactive) in the assay on HCC 2998; > 100 µM (inactive) with SK-MEL-28; 46.3 µM (inactive) in the assay on NCI-H226; > 100 µM (inactive) with M14. The GI50 was > 100 µM (inactive) with OVCAR-5 and 89.5 µM (inactive) in the assay with SF-539.

As to `CC(=O)OCCOCBr`, the GI50 in the assay on HCT-15 is greater than 100 µM; with RPMI-8226 it was > 100 µM (inactive); in the assay with OVCAR-3, > 100 µM (inactive); in the assay with SK-OV-3, > 100 µM (inactive); with HOP-92, > 100 µM (inactive); in the assay on OVCAR-8, > 100 µM (inactive). Further, the GI50 in the assay on SW-620, in the assay with SK-MEL-28, in the assay with NCI-H226, with K562, in the assay on CCRF-CEM and in the assay with M14 was > 100 µM (inactive) each time. Further, the GI50 with OVCAR-5 and in the assay on SF-539 was > 100 µM (inactive) in each case.

In the case of `COc1ccccc1NC(=O)CC(=O)n1nc(C)c(/N=N/c2ccccc2C(=O)O)c1C`, the GI50 with HCT-15 is greater than 100 µM; with RPMI-8226, > 100 µM (inactive); with MOLT-4 it was > 100 µM (inactive); in the assay with OVCAR-3, 73.1 µM (inactive); with SK-OV-3, > 100 µM (inactive); with OVCAR-8 it was > 100 µM (inactive). Besides, the GI50 with NCI-H23 is 88.9 µM (inactive); with SW-620 it was > 100 µM (inactive); in the assay on HCC 2998, > 100 µM (inactive); in the assay on SK-MEL-28, > 100 µM (inactive); in the assay with K562, 97.1 µM (inactive); in the assay with CCRF-CEM it was > 100 µM (inactive). Further, the GI50 with M14, in the assay on OVCAR-5 and in the assay on SF-539 was > 100 µM (inactive) each time.

Consider `O=C1C2c3[nH]c4ccccc4c3C3CCCCCCC3C2C(=O)N1c1ccccc1` (stereo not drawn), for which the GI50 in the assay with HCT-15 was 22.3 µM; in the assay with RPMI-8226, 13.4 µM (inactive); with MOLT-4 it was > 10 µM (inactive); in the assay on OVCAR-3, 4.35 µM (inactive); in the assay on SK-OV-3 it was 2.44 µM (inactive); in the assay with OVCAR-8 it was 4.32 µM (inactive). For the same molecule, the GI50 with NCI-H23 is 21 µM (inactive); in the assay on SW-620 it was 8.61 µM (inactive); in the assay with HCC 2998 it was 12.3 µM (inactive); with SK-MEL-28, 14.6 µM (inactive); in the assay with K562 it was 4.52 µM (inactive); in the assay with CCRF-CEM it was 10.2 µM (inactive). For the same molecule, the results for the GI50 with M14 and with SF-539 were 6.85 µM (inactive) and 12 µM (inactive), respectively.

With `CC(=O)OCCC(O[Si](c1ccccc1)(c1ccccc1)C(C)(C)C)C(C)(C)O` (stereo not drawn), the GI50 with HCT-15 was 31.1 µM; in the assay on RPMI-8226, 23.9 µM (inactive); with MOLT-4, 24 µM (inactive); in the assay on OVCAR-3 it was 21 µM (inactive); in the assay on SK-OV-3 it was 42.7 µM (inactive); in the assay with HOP-92 it was 24.6 µM (inactive). The GI50 was 38.9 µM (inactive) in the assay with OVCAR-8; 24.7 µM (inactive) with NCI-H23; 54.8 µM (inactive) in the assay on SW-620; 51.2 µM (inactive) with SK-MEL-28; 19.5 µM (inactive) in the assay on NCI-H226; 31.6 µM (inactive) in the assay on K562. Moreover, the GI50 is 24.6 µM (inactive) with CCRF-CEM, 39 µM (inactive) in the assay on M14, > 100 µM (inactive) in the assay on OVCAR-5 and 25.4 µM (inactive) in the assay with SF-539.

For the molecule `O=C(CC1(O)C(=O)Nc2ccccc21)c1ccc(Cl)cc1Cl` (stereo not drawn), the GI50 is greater than 100 µM in the assay on HCT-15; > 100 µM (inactive) in the assay with RPMI-8226; > 100 µM (inactive) in the assay with MOLT-4; > 100 µM (inactive) in the assay with OVCAR-3; > 100 µM (inactive) in the assay with SK-OV-3; > 100 µM (inactive) in the assay on HOP-92. Also, the GI50 is > 100 µM (inactive) in the assay with OVCAR-8; > 100 µM (inactive) in the assay with NCI-H23; > 100 µM (inactive) with SW-620; > 100 µM (inactive) with SK-MEL-28; 71.6 µM (inactive) with NCI-H226; > 100 µM (inactive) in the assay with K562. The GI50 in the assay with M14, in the assay on OVCAR-5 and in the assay on SF-539 was > 100 µM (inactive) each time.

Take `COC(=O)c1nc(NC#N)nc(O)c1C`: the GI50 is greater than 87.3 µM with HCT-15; 98.9 µM (inactive) with RPMI-8226; > 100 µM (inactive) with MOLT-4; > 100 µM (inactive) in the assay with OVCAR-3; > 100 µM (inactive) with SK-OV-3; 50.2 µM (inactive) with HOP-92. In addition, the GI50 in the assay with OVCAR-8 was > 100 µM (inactive); with NCI-H23, > 78.7 µM (inactive); in the assay on SW-620, > 100 µM (inactive); in the assay with HCC 2998 it was > 100 µM (inactive); in the assay with SK-MEL-28, > 100 µM (inactive); in the assay with K562, 34.9 µM (inactive). Further, the GI50 with CCRF-CEM is 78 µM (inactive); in the assay on M14, > 100 µM (inactive); with OVCAR-5, > 100 µM (inactive); with SF-539, > 55.8 µM (inactive).

Turning to `O=C1C2CCC(C2)C12CC1(c3ccccc3)C(=O)c3ccccc3N1O2` (stereo not drawn), the GI50 in the assay with HCT-15 was greater than 100 µM; with RPMI-8226 it was 58.9 µM (inactive); in the assay on MOLT-4 it was 42.6 µM (inactive); in the assay with SK-OV-3, > 100 µM (inactive); with HOP-92, 42.7 µM (inactive); in the assay with OVCAR-8 it was > 100 µM (inactive). In addition, the GI50 in the assay with NCI-H23, in the assay with SW-620, with HCC 2998, in the assay with SK-MEL-28, in the assay on NCI-H226 and in the assay with K562 was > 100 µM (inactive) in each case. In addition, the GI50 in the assay on CCRF-CEM, in the assay on M14 and in the assay with SF-539 was > 100 µM (inactive) throughout.

As for `C[C@@H](NC1CCCC[C@@H]1O)c1ccccc1` (stereo partly drawn), the GI50 is greater than 100 µM in the assay on HCT-15; > 100 µM (inactive) in the assay on RPMI-8226; > 100 µM (inactive) in the assay with MOLT-4; > 100 µM (inactive) with OVCAR-3; > 100 µM (inactive) with SK-OV-3; > 100 µM (inactive) in the assay on HOP-92. The GI50 with OVCAR-8, with SW-620, in the assay on HCC 2998, with SK-MEL-28, in the assay on NCI-H226 and in the assay on K562 was > 100 µM (inactive) throughout. In addition, the GI50 with CCRF-CEM, with M14 and in the assay on OVCAR-5 was > 100 µM (inactive) throughout.
